In US20050074820A1, “Method for the immunohistological detection of fibrogenesis in histological tissue sections using antiboides against C-terminal procollagen alpha1 (III) propeptide” (priority 2001, published 2005):

Key:
[1] = system: patients with chronic hepatitis B; assay: Serum ALT before and after 52 weeks of treatment, phase III trials; assay type: in vivo, human
[2] = system: hepatitis B virus (HBV) DNA; assay: HBV DNA concentration before and after treatment; assay type: in vivo
α-SMA = assay: Quantitative immunostain of α-SMA in liver tissue sections (image analysis); assay type: in vivo, human; conditions: for α-SMA expression (stained area over total area): all lamivudine patients; for α-SMA expression: lamivudine-treated, Pre
Method: (§1) Paraffin-embedded tissue sections were stained for α-smooth muscle actin (α-SMA) or PIIICP (FIG. 2). The staining procedure was carried out using the DAKO Envision System (DAKO; Carpinteria, Calif., USA). After inhibiting endogenous peroxidase with Peroxidase Blocking Agent (DAKO) the tissue sections were incubated for 10 minutes at room temperature with a murine monoclonal anti-α-SMA antibody (diluted 1:200 in PBS+1% BSA) or with a murine monoclonal anti-PIIICP antibody (antibody concentration 5 mg/ml; diluted 1:100 in PBS+1% BSA). After the incubation, the sections were washed twice with PBS buffer for 3 minutes, respectively. The tissue sections were then incubated with labelled polymer (peroxidase-labelled polymer conjugated with anti-rabbit and anti-mouse immunoglobulins from the goat) at room temperature for 10 minutes. After washing twice with PBS buffer the tissue sections were incubated with 3,3-diaminobenzidine (DAB) substrate for 8 minutes, rinsed with water and exposed to DAB Enhancer (Innovex Bioscience; Richmond, Calif., USA) for 5 minutes and subsequently rinsed with water again. Counterstaining was performed with hematoxyline. As a negative control all samples were incubated with 1% BSA solution instead of antibody.
(§2) The stained parenchymal areas on the tissue sections, that are formed by α-SMA or PIIICP-positive hepatic stellate cells, were quantified with the Bioquant TCW 98 image analysis program (Bioquant Image Analysis; www.bioquant.com) with the connected Computer as well as with an Olympus microscope. The results were stated as the percent ratio between the stained area and the total area.
(§3) The immunohistochemical quantification was futhermore correlated with changes of individual components of the histological activity index (HAI) or with entire HAI. For the individual patients in both treatment groups—lamivudine or placebo, respectively—the change of α-SMA- or PIIICP-stained areas was calculated according to: ΔSMA (or ΔPIIICP)=percent area before treatment minus percent […]. The mean change was compared between the lamivudine-treated and the placebo-treated groups using Student's t-Test.

PIIICP = assay: Quantitative immunostain of PIIICP in liver tissue sections (image analysis); assay type: in vivo, human; conditions: for PIIICP expression (stained area over total area): all lamivudine patients; for PIIICP expression: lamivudine-treated, Pre
Method: as §1, §2, §3

[3] = system: hepatitis B e-antigen (HBeAg); assay: Loss of hepatitis B e-antigen under treatment; assay type: in vivo, hepatitis B virus; conditions: lamivudine 100 mg daily, 52 weeks; versus 9% placebo, p<0.05
Excerpt: The liver tissue samples were examined by a pathologist. […] A reduction of the HAI by 2 points HAI is considered a significant change in hepatic histology after the termination of the treatment.
The baselines and the quantitative immunostains against α-SMA und PIIICP were compared between lamivudine und placebo patients using Student's t-tests. In addition, the results of the immunostains were correlated with the loss of the hepatitis B e-antigen (HBeAg) using the Mantel-Haenszel chi square test.

[4] = lamivudine group n = 47, Post (100 mg daily, 52 weeks)

Nc1ccn([C@@H]2CS[C@H](CO)O2)c(=O)n1 [Lamivudine, lamivudine]
ALT (mean ± SD) ([1]; chronic hepatitis B patients, lamivudine group n = 47, Pre (before treatment)): 154 ± 100 IU/l
ALT (mean ± SD) [1, 4]: 60.7 ± 55 IU/l
HBV DNA [2, 4]: 33 ± 120 pg/mL
HBV DNA ([2]; lamivudine group n = 47, Pre (before treatment)): 180 ± 211^ψ pg/ml
α-SMA expression (stained area over total area) (α-SMA; after treatment): 0.58±0.11%
α-SMA expression (stained area over total area) (α-SMA; before treatment): 1.06±0.23%
α-SMA expression (α-SMA; HbeAg loss (n = 17)): 1.46
α-SMA expression (α-SMA; No loss of HbeAg (n = 30)): 0.83
PIIICP expression (stained area over total area) (PIIICP; after lamivudine): 0.02%
PIIICP expression (stained area over total area) (PIIICP; before lamivudine): 0.06%
PIIICP expression (PIIICP; HbeAg loss (n = 17)): 0.10
PIIICP expression (PIIICP; No loss of HbeAg (n = 30)): 0.03
patients who lost the HbeAg [3]: 36.2%
